Test results taken from patent publication US20140274984A1, “ACID ADDITION SALTS OF 5ALPHA-HYDROXY-6BETA-[2-(1H-IMIDAZOL-4-YL)ETHYLAMINO]CHOLESTAN-3BETA-OL” (INSERM (INSTITUT NATIONAL DE LA SANTÉ ET DE LA RECHERE …, priority 2011, published 2014).

Assay: Water solubility at room temperature (shake 5 hours, filtered supernatant, HPLC with calibration curve)
Format: physicochemical
Details: shaken 5 hours
Experimental: An adequate amount of each sample was taken. Water (50% v/v) was added to each sample, and the mixture was shaken at room temperature for 5 hours. The supernatant was filtered through a filter, and diluted with a mixed solution of water 0.1% TFA/acetonitrile as necessary to give a sample solution. The concentration (mg/ml) of the sample solution was measured by high performance liquid chromatography (HPLC) with a calibration curve method, and taken as the solubility in water at room temperature.
HPLC Analysis Conditions:
HPLC purifications and analyses were carried out using an LC200 series Perkin Elmer apparatus, and diode array UV detector, using an Ultrasep C18 RP 100 column from Bischoff Chromatography.

Row | Solubility in water at room temperature [µg/mL] | Substance
1 | 4500 | 5alpha-Hydroxy-6beta-[2-(1H-imidazol-4-yl)ethylamino]cholestan-3beta-ol, acetate [Example 14]
2 | 11000 | 5alpha-Hydroxy-6beta-[2-(1H-imidazol-4-yl)ethylamino]cholestan-3beta-ol, mesylate [Example 13]
3 | 1400 | 5alpha-Hydroxy-6beta-[2-(1H-imidazol-4-yl)ethylamino]cholestan-3beta-ol, pamoate [Example 7]
